Converted amounts (≈) assume the structure as drawn.
Tests used:
Helicobapter pylori [1] = assay: Inhibition halos of the bacterial growth (impregnated disks on agar); format: cell-based; conditions: for activity against the Helicobapter pylori strains used: 10 strains
Protocol: Comparison substance: Metronidazole Solubilization of the substances : All the substances to be studied are dissolved at room temperature in DMSO.
Some commercially available antibiogram disks are so impregnated with the above mentioned compounds that each disk has concentration equal to 10, 1, 0.1, 0.01 µg.
10 strains of Helicobapter pylori are used of recent clinical isolation.
Columbia Blood Agar Base is used, containing 5% of defibrinated horse blood, 2 % of calf serum, 2 vials of Vitox per liter of medium and Vancomicine (10 µg/ml) Trimetoprim lactate(5 µg/ml) and Polimixin B (2.5 U/ml).
0.1 ml of a suspension of the different used strains are uniformly distributed onto Petri plates, containing 20 ml of Columbia Blood Agar base, obtained by taking a sample, by means of a platinum loop, of different colonies from a 48 hours culture, grown in anaerobiosis jars with "Gas Pack", without a catalyst and diluted into a physiological solution.
4 disks per plate, previously impregnated with the substances under examination, are then placed onto the agar layer of each plate.
After 48 hours of anaerobiosis incubation, as above described, the inhibition halos of the bacterial growth, produced by the different activity of the substances inside the agar, are evaluated.

Helicobapter pylori [2] = assay: Minimal inhibiting concentration (agar dilution); format: cell-based
Protocol: Substances under examination: EU11100, EU11102, EU11103, EU11104. Comparison substance: Metronidazole Solubilization of the substances: All the substances to be studied are dissolved at room temperature in DMSO. […] 10 strains of Helicobapter pylori are used of recent clinical isolation […] The sowing of the bacteria, prepared as described in the preceding test is carried out by means a "multi-point inoculator". After 48 hours incubation under the condition described in the preceding test, the plates are examined and the Minimal Inhibiting Concentration is evaluated, namely that dose corresponding to growth absence.

## Cc1ncc([N+](=O)[O-])n1CCO [Metronidazole, reference compound]
Helicobapter pylori [1]; 0.1 µg/disk
  activity against the Helicobapter pylori strains used: inactive
Helicobapter pylori [1]; 1 µg/disk
  activity against the Helicobapter pylori strains used: inactive
Helicobapter pylori [1]; average of 10 strains, 10 µg/disk
  Inhibition halo (mm), Average: 39.5 mm
Helicobapter pylori [1]; general statement, at a low concentration
  activity against Helicobapter pylori: poorly effective
Helicobapter pylori [1]; strain 1, 0.01 µg/disk
  Inhibition halo (mm) at the concentration (µg/disk): 0 mm
Helicobapter pylori [1]; strain 1, 0.1 µg/disk
  Inhibition halo (mm) at the concentration (µg/disk): 0 mm
Helicobapter pylori [1]; strain 1, 1 µg/disk
  Inhibition halo (mm) at the concentration (µg/disk): 0 mm
Helicobapter pylori [1]; strain 1, 10 µg/disk
  Inhibition halo (mm) at the concentration (µg/disk): 45 mm
Helicobapter pylori [1]; strain 2, 0.01 µg/disk
  Inhibition halo (mm) at the concentration (µg/disk): 0 mm
Helicobapter pylori [1]; strain 2, 0.1 µg/disk
  Inhibition halo (mm) at the concentration (µg/disk): 0 mm
Helicobapter pylori [1]; strain 2, 1 µg/disk
  Inhibition halo (mm) at the concentration (µg/disk): 0 mm
Helicobapter pylori [1]; strain 2, 10 µg/disk
  Inhibition halo (mm) at the concentration (µg/disk): 33 mm
Helicobapter pylori [1]; strain 3, 0.01 µg/disk
  Inhibition halo (mm) at the concentration (µg/disk): 0 mm
Helicobapter pylori [1]; strain 3, 0.1 µg/disk
  Inhibition halo (mm) at the concentration (µg/disk): 0 mm
Helicobapter pylori [1]; strain 3, 1 µg/disk
  Inhibition halo (mm) at the concentration (µg/disk): 0 mm
Helicobapter pylori [1]; strain 3, 10 µg/disk
  Inhibition halo (mm) at the concentration (µg/disk): 45 mm
Helicobapter pylori [1]; strain 4, 0.01 µg/disk
  Inhibition halo (mm) at the concentration (µg/disk): 0 mm
Helicobapter pylori [1]; strain 4, 0.1 µg/disk
  Inhibition halo (mm) at the concentration (µg/disk): 0 mm
Helicobapter pylori [1]; strain 4, 1 µg/disk
  Inhibition halo (mm) at the concentration (µg/disk): 0 mm
Helicobapter pylori [1]; strain 4, 10 µg/disk
  Inhibition halo (mm) at the concentration (µg/disk): 42 mm
Helicobapter pylori [1]; strain 5, 0.01 µg/disk
  Inhibition halo (mm) at the concentration (µg/disk): 0 mm
Helicobapter pylori [1]; strain 5, 0.1 µg/disk
  Inhibition halo (mm) at the concentration (µg/disk): 0 mm
Helicobapter pylori [1]; strain 5, 1 µg/disk
  Inhibition halo (mm) at the concentration (µg/disk): 0 mm
Helicobapter pylori [1]; strain 5, 10 µg/disk
  Inhibition halo (mm) at the concentration (µg/disk): 42 mm
Helicobapter pylori [1]; strain 6, 0.01 µg/disk
  Inhibition halo (mm) at the concentration (µg/disk): 0 mm
Helicobapter pylori [1]; strain 6, 0.1 µg/disk
  Inhibition halo (mm) at the concentration (µg/disk): 0 mm
Helicobapter pylori [1]; strain 6, 1 µg/disk
  Inhibition halo (mm) at the concentration (µg/disk): 0 mm
Helicobapter pylori [1]; strain 6, 10 µg/disk
  Inhibition halo (mm) at the concentration (µg/disk): 41 mm
Helicobapter pylori [1]; strain 7, 0.01 µg/disk
  Inhibition halo (mm) at the concentration (µg/disk): 0 mm
Helicobapter pylori [1]; strain 7, 0.1 µg/disk
  Inhibition halo (mm) at the concentration (µg/disk): 0 mm
Helicobapter pylori [1]; strain 7, 1 µg/disk
  Inhibition halo (mm) at the concentration (µg/disk): 0 mm
Helicobapter pylori [1]; strain 7, 10 µg/disk
  Inhibition halo (mm) at the concentration (µg/disk): 32 mm
Helicobapter pylori [1]; strain 8, 0.01 µg/disk
  Inhibition halo (mm) at the concentration (µg/disk): 0 mm
Helicobapter pylori [1]; strain 8, 0.1 µg/disk
  Inhibition halo (mm) at the concentration (µg/disk): 0 mm
Helicobapter pylori [1]; strain 8, 1 µg/disk
  Inhibition halo (mm) at the concentration (µg/disk): 0 mm
Helicobapter pylori [1]; strain 8, 10 µg/disk
  Inhibition halo (mm) at the concentration (µg/disk): 40 mm
Helicobapter pylori [1]; strain 9, 0.01 µg/disk
  Inhibition halo (mm) at the concentration (µg/disk): 0 mm
Helicobapter pylori [1]; strain 9, 0.1 µg/disk
  Inhibition halo (mm) at the concentration (µg/disk): 0 mm
Helicobapter pylori [1]; strain 9, 1 µg/disk
  Inhibition halo (mm) at the concentration (µg/disk): 0 mm
Helicobapter pylori [1]; strain 9, 10 µg/disk
  Inhibition halo (mm) at the concentration (µg/disk): 38 mm
Helicobapter pylori [1]; strain 10, 0.01 µg/disk
  Inhibition halo (mm) at the concentration (µg/disk): 0 mm
Helicobapter pylori [1]; strain 10, 0.1 µg/disk
  Inhibition halo (mm) at the concentration (µg/disk): 0 mm
Helicobapter pylori [1]; strain 10, 1 µg/disk
  Inhibition halo (mm) at the concentration (µg/disk): 0 mm
Helicobapter pylori [1]; strain 10, 10 µg/disk
  Inhibition halo (mm) at the concentration (µg/disk): 37 mm
Helicobapter pylori [2]; 10 strains
  MIC50: 0.12 µg/mL (≈ 0.701 µM)
  MIC90: 0.25 µg/mL (≈ 1.46 µM)
  MIC range: 0.015 to 0.25 µg/mL
Helicobapter pylori [2]; strain 1
  MIC: 0.25 µg/mL (≈ 1.46 µM)
Helicobapter pylori [2]; strain 2
  MIC: 0.06 µg/mL (≈ 0.351 µM)
Helicobapter pylori [2]; strain 3
  MIC: 0.25 µg/mL (≈ 1.46 µM)
Helicobapter pylori [2]; strain 4
  MIC: 0.25 µg/mL (≈ 1.46 µM)
Helicobapter pylori [2]; strain 5
  MIC: 0.015 µg/mL (≈ 0.0876 µM)
Helicobapter pylori [2]; strain 6
  MIC: 0.12 µg/mL (≈ 0.701 µM)
Helicobapter pylori [2]; strain 7
  MIC: 0.25 µg/mL (≈ 1.46 µM)
Helicobapter pylori [2]; strain 8
  MIC: 0.25 µg/mL (≈ 1.46 µM)
Helicobapter pylori [2]; strain 9
  MIC: 0.12 µg/mL (≈ 0.701 µM)
Helicobapter pylori [2]; strain 10
  MIC: 0.12 µg/mL (≈ 0.701 µM)

From EP0535528A1, “Antibacterial 5-Nitro-1-methyl-imidazolyl-3-terbutyl-2-hydroxy-aryl-carbinols” (EURORESEARCH S.r.L., priority 1991, dated 1993)
